The values below come from US11111243B2, “Azaindole compounds as histone methyltransferase inhibitors” (GLOBAL BLOOD THERAPEUTICS, INC., priority 2017, dated 2021).

Where a name gives a salt, the structure may show the parent alone.

In this test the target is T1, G9a (Homo sapiens, UniProt Q96KQ7).
T1 sequence (Q96KQ7 1-1210): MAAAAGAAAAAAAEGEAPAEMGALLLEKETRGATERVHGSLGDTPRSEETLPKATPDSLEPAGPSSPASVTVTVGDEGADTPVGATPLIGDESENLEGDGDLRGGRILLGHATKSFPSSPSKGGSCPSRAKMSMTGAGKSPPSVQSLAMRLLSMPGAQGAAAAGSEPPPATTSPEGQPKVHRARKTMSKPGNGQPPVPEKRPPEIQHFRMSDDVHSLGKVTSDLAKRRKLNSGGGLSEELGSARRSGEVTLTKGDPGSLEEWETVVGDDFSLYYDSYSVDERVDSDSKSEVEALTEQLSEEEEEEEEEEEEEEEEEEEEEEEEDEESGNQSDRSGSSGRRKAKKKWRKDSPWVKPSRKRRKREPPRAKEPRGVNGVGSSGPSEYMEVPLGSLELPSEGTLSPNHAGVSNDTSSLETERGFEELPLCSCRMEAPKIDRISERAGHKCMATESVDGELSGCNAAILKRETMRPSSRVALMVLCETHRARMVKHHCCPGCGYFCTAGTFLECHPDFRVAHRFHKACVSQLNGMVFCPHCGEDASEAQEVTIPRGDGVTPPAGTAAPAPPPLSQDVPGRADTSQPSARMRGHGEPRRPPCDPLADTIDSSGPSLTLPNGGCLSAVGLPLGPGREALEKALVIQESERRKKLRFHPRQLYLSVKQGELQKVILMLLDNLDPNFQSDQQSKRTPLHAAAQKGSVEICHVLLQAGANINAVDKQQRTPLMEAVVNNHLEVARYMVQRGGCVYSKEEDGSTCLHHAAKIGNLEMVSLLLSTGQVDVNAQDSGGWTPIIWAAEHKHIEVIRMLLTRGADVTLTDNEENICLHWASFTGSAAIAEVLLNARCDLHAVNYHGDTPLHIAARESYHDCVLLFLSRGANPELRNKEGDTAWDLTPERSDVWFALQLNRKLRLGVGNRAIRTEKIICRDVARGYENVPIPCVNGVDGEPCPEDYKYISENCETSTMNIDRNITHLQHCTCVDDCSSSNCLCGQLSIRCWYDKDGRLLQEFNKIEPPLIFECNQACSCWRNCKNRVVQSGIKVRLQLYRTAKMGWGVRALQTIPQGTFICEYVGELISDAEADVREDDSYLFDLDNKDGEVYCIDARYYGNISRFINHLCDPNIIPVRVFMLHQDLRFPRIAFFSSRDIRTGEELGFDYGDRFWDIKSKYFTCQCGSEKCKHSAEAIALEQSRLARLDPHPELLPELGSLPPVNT
Kind of test: G9a AlphaLISA enzymatic activity assay. It is filed as biochemical. The settings on record: 0.15 nM G9a, 10 uM S-adenosyl-methionine, 100 nM biotinylated histone 3 peptide (1-21), 1 h room temperature. The source says:
The G9a AlphaLISA assay was used to detect the methyl modifications of a biotinylated histone H3 peptide by the compounds. These modifications are done by the histone methyl transferase activity of the G9a enzyme. The assay consists of reading a chemiluminescent signal at 615 nm; this signal is generated by a laser excitation at 680 nm that transfers a reactive singlet oxygen between the donor beads and acceptor beads. Donor beads are streptavidin conjugated and bind to the biotin on the peptide. Acceptor beads are conjugated with an antibody that recognizes the specific G9a methyl mark on the peptide. If there is a methyl mark on the peptide, the acceptor beads will bind to the peptide. Upon binding, the acceptor beads will be in close proximity (<200 nm) of the donor beads and when the donor beads are excited, the transfer of the oxygen can occur and a strong signal will be generated. If there is no methyl mark, the interaction between beads will not occur and signal will be at background levels.
For the assay, the following buffer was used to set up reactions: 50 mM Tris-HCl pH9, 50 mM NaCl, 0.01% Tween-20 and 1 mM DTT (added fresh prior to starting the reactions). The assay is set up by adding a final concentration of 0.15 nM G9a, 10 uM S-adenosyl-methionine and, 100 nM biotinylated histone 3 peptide (1-21). The reaction is incubated at room temperature for 1 h, and subsequently quenched by the addition of the acceptor beads (anti-H3k9me2 AlphaLISA acceptor beads, PerkinElmer #AL117) at a final concentration of 20 ug/mL. The acceptor beads are incubated for 1 h. After 1 h, the donor beads are added at a final concentration of 20 ug/mL (Alpha Streptavidin donor beads, PerkinElmer #6760002). Donor beads are incubated for 0.5 h. Both donor and acceptor beads are resuspended in AlphaLISA 5× Epigenetics Buffer 1 Kit (PerkinElmer #AL008) prior to addition to the reaction. All manipulations and incubations with the donor and acceptor beads are done in subdued light. Signal is detected in an EnVision plate reader in Alpha mode (See ACS Med Chem Lett. 2014 Jan. 2; 5(2):205-9)
Percent inhibition was calculated for each compound dilution and the concentration that produced 50% inhibition was calculated. This value is presented as the IC50.
On the technique in general: Bead proximity is the source of the signal in Alpha formats.

The IC50 is the concentration that gives 50% inhibition. For the compound `COc1cc2c(cc1OCCCN1CCCC1)[nH]c1ccncc12` [Compound 6, 1-[3-({8-methoxy-5H-pyrido[4,3-b]indol-7-yl}oxy)propyl]pyrrolidine], the IC50 amounted to 3.2 nM.
For `COc1cc2c(cc1OCCCN1CCCC1)[nH]c1ncccc12` [Compound 7, 1-[3-({6-methoxy-9H-pyrido[2,3-b]indol-7-yl}oxy)propyl]pyrrolidine] the value was 280 nM; for `COc1cc2c(cc1OCCCN1CCCC1)[nH]c1cc(N)ncc12` [Compound 8, 8-methoxy-7-[3-(pyrrolidin-1-yl)propoxy]-5H-pyrido[4,3-b]indol-3-amine], 5.3 nM.
For `COc1cc2c(cc1OCCCN1CCCC1)[nH]c1ccnc(F)c12` [Compound 9, 1-[3-({1-fluoro-8-methoxy-5H-pyrido[4,3-b]indol-7-yl}oxy)propyl]pyrrolidine] the value was 590 nM; for `COc1cc2c(cc1OCCCN1CCCC1)[nH]c1cc(N)nc(C)c12` [Compound 10, 8-methoxy-1-methyl-7-[3-(pyrrolidin-1-yl)propoxy]-5H-pyrido[4,3-b]indol-3-amine], 4.5 nM; for `COc1cc2c(cc1OCCCN1CCCC1)[nH]c1ccnc(N3CC[C@H](O)C3)c12` [Compound 11, (3S)-1-{8-methoxy-7-[3-(pyrrolidin-1-yl)propoxy]-5H-pyrido[4,3-b]indol-1-yl}pyrrolidin-3-ol], 8.2 nM.
`COc1cc2c(cc1OCCCN1CCCC1)[nH]c1ccnc(C3CC3)c12` [Compound 12, 1-[3-({1-cyclopropyl-8-methoxy-5H-pyrido[4,3-b]indol-7-yl}oxy)propyl]pyrrolidine]: the IC50 was in the range of 1 to 3 nM.
For `COc1cc2c(cc1OCCCN1CCCC1)[nH]c1ccnc(N3CC[C@@H](O)C3)c12` [Compound 13, (3R)-1-{8-methoxy-7-[3-(pyrrolidin-1-yl)propoxy]-5H-pyrido[4,3-b]indol-1-yl}pyrrolidin-3-ol] the value was 34 nM; for `COC[C@H](C)Nc1nccc2[nH]c3cc(OCCCN4CCCC4)c(OC)cc3c12` [Compound 14, 8-methoxy-N-[(2S)-1-methoxypropan-2-yl]-7-[3-(pyrrolidin-1-yl)propoxy]-5H-pyrido[4,3-b]indol-1-amine], 6.5 nM; for `COc1cc2c(cc1OCCCN1CCCC1)[nH]c1ccnc(N3CCCC3)c12` [Compound 15, 1-{8-methoxy-7-[3-(pyrrolidin-1-yl)propoxy]-5H-pyrido[4,3-b]indol-1-yl}pyrrolidine], 3.3 nM.
In the case of `COc1cc2c(cc1OCCCN1CCCC1)[nH]c1ccnc(N3CCC(O)CC3)c12` [Compound 16, 1-{8-methoxy-7-[3-(pyrrolidin-1-yl)propoxy]-5H-pyrido[4,3-b]indol-1-yl}piperidin-4-ol] it was 61 nM; in that of `COc1cc2c(cc1OCCCN1CCCC1)[nH]c1ccnc(N3CCOCC3)c12` [Compound 17, 4-{8-methoxy-7-[3-(pyrrolidin-1-yl)propoxy]-5H-pyrido[4,3-b]indol-1-yl}morpholine], 370 nM; in that of `COc1cc2c(cc1OCCCN1CCCC1)[nH]c1ccnc(N3CC(O)C3)c12` [Compound 18, 1-{8-methoxy-7-[3-(pyrrolidin-1-yl)propoxy]-5H-pyrido[4,3-b]indol-1-yl}azelidin-3-ol], 12 nM.
In turn, `COc1cc2c(cc1OCCCN1CCCC1)[nH]c1ccnc(N3CC4CCC(C3)O4)c12` [Compound 19, 3-{8-methoxy-7-[3-(pyrrolidin-1-yl)propoxy]-5H-pyrido[4,3-b]indol-1-yl}-8-oxa-3-azabicyclo[3.2.1]octane] showed a half-inhibitory concentration (IC50) of 300 nM.
The compound `CCOCCNc1nccc2[nH]c3cc(OCCCN4CCCC4)c(OC)cc3c12` [Compound 20, N-(2-ethoxyethyl)-8-methoxy-7-[3-(pyrrolidin-1-yl)propoxy]-5H-pyrido[4,3-b]indol-1-amine] came in with an IC50 of 7 nM.
Compound `CCCc1nccc2[nH]c3cc(OCCCN4CCCC4)c(OC)cc3c12` [Compound 21, 1-[3-({8-methoxy-1-propyl-5H-pyrido[4,3-b]indol-7-yl}oxy)-propyl]pyrrolidine] showed a half-maximal inhibitory concentration (IC50) of 3.3 nM.
Compound `COc1cc2c(cc1OCCCN1CCCC1)[nH]c1ncncc12` [Compound 22, 1-[3-({6-methoxy-9H-pyrimido-[4,5-b]indol-7-yl}oxy)propyl]-pyrrolidine] registered an IC50 of 570 nM.
Compound `COc1cc2c(cc1OCCCN1CCCC1)[nH]c1ccnc(-c3ccncc3)c12` [Compound 23, 8-methoxy-1-(pyridin-4-yl)-7-(3-(pyrrolidin-1-yl)propoxy)-5H-pyrido[4,3-b]indole] gave an IC50 of 100 nM.
In turn, `COc1cc2c(cc1OCCCN1CCCC1)[nH]c1ccnc(-c3cccnc3)c12` [Compound 24, 8-methoxy-1-(pyridin-3-yl)-7-(3-(pyrrolidin-1-yl)propoxy)-5H-pyrido[4,3-b]indole] returned an IC50 of 93 nM.
With `COc1cc2c(cc1OCCCN1CCCC1)[nH]c1ccnc(-c3ccccn3)c12` [Compound 25, 8-methoxy-1-(pyridin-2-yl)-7-(3-(pyrrolidin-1-yl)propoxy)-5H-pyrido[4,3-b]indole], 140 nM corresponded to half-maximal inhibition (IC50).
With `COc1c(OCCCN2CCCC2)ccc2c1[nH]c1cccnc12` [Compound 26, 1-[3-({6-methoxy-5H-pyrido[3,2-b]indol-7-yl}oxy)propyl]pyrrolidine hydrochloride], the 50% inhibitory concentration (IC50) is 250 nM.
For `COc1cc2c(cc1OCCCN1CCCC1)[nH]c1cccnc12` [Compound 27, 1-[3-({8-methoxy-5H-pyrido[3,2-b]indol-7-yl}oxy)propyl]pyrrolidine hydrochloride] the value was 150 nM; for `COc1cc2c(cc1OCCCN1CCCC1)[nH]c1cnccc12` [Compound 28, 1-[3-({6-methoxy-9H-pyrido[3,4-b]indol-7-yl}oxy)propyl]pyrrolidine hydrochloride], 60 nM; for `COc1cc2c(cc1OCCCN1CCCC1)[nH]c1ccnc(C)c12` [Compound 29, 1-[3-({8-methoxy-1-methyl-5H-pyrido[4,3-b]indol-7-yl}oxy)propyl]pyrrolidine hydrochloride], 1.2 nM.
Compound `COc1cc2c(cc1OCCCN1CCCC1)[nH]c1ccncc12` [Compound 31, 1-[3-({8-methoxy-5H-pyrido[4,3-b]indol-7-yl}oxy)propyl]pyrrolidine hydrochloride] had an IC50 of 3.6 nM.
In the case of `COc1cc2c(cc1OCCCN1CCCC1)[nH]c1nc(N)ccc12` [Compound 33, 6-methoxy-7-[3-(pyrrolidin-1-yl)propoxy]-9H-pyrido[2,3-b]indol-2-amine hydrochloride] it was 320 nM; in that of `COc1cc2c(cc1OCCCN1CCCC1)[nH]c1ccnc(N3CCCC3)c12` [Compound 39, 1-{8-methoxy-7-[3-(pyrrolidin-1-yl)propoxy]-5H-pyrido[4,3-b]indol-1-yl}pyrrolidine], 5.7 nM.
